According to ChEMBL document CHEMBL5046276 (J Med Chem, 2022):

Tests used:
Plasmodium falciparum [1] = experiment: Antimalarial activity against asexual blood stage quinine-resistant Plasmodium falcipuram C2A assessed as parasite growth inhibition incubated for 72 hrs by SYBR Green I staining based fluorescence analysis; assay type: functional, organism-based
Plasmodium falciparum [2] = experiment: Antimalarial activity against asexual blood stage wild-type Plasmodium falciparum 3D7 assessed as parasite growth inhibition incubated for 72 hrs by SYBR Green I staining based fluorescence analysis; assay type: functional, organism-based; conditions: 3D7, 72 h
Plasmodium falciparum [3] = experiment: Antimalarial activity against asexual blood stage chloroquine-resistant Plasmodium falciparum Dd2 assessed as parasite growth inhibition incubated for 72 hrs by SYBR Green I staining based fluorescence analysis; assay type: functional, organism-based; conditions: Dd2, 72 h
Plasmodium falciparum [4] = experiment: Antimalarial activity against asexual blood stage chloroquine-resistant Plasmodium falcipuram GB4 assessed as parasite growth inhibition incubated for 72 hrs by SYBR Green I staining based fluorescence analysis; assay type: functional, organism-based; conditions: GB4, 72 h
Plasmodium falciparum [5] = experiment: Antimalarial activity against asexual blood stage sulfadoxine-pyrimethamine/mefloquine-resistant Plasmodium falcipuram CP286 assessed as parasite growth inhibition incubated for 72 hrs by SYBR Green I staining based fluorescence analysis; assay type: functional, organism-based; conditions: CP286, 72 h
[6] = Cytotoxicity against human HepG2 cells incubated for 72 hrs by CCK-8 assay
[7] = Cytotoxicity against HEK293T cells incubated for 72 hrs by CCK-8 assay; conditions: human
[8] = Selectivity index, ratio of IC50 for cytotoxicity against human HepG2 cells to IC50 for antimalarial activity against asexual blood stage wild-type Plasmodium falciparum 3D7; assay type: toxicity, cell-based; conditions: read-out: Ratio IC50
[9] = Selectivity index, ratio of IC50 for cytotoxicity against HEK293T cells to IC50 for antimalarial activity against asexual blood stage wild-type Plasmodium falciparum 3D7; assay type: toxicity, cell-based; conditions: human, read-out: Ratio IC50
Plasmodium falciparum [10] = experiment: (§1) Antimalarial activity against wild-type Plasmodium falcipuram 3D7 infected in human RBC assessed as reduction in parasitemia in blood smear by measuring parasite survival ratio at ring stage at upto 700 nM incubated for 6 hrs followed by compound washout and replacement with fresh medium without compounds and measured after 66 hrs by ring stage survival assay; assay type: functional; conditions: dose nM <=700
Plasmodium falciparum [11] = experiment: as §1, with “ART-resistant” for “wild-type”, “6218 harbouring C580Y mutant” for “3D7”; assay type: functional; conditions: dose nM <=700
Plasmodium falciparum [12] = experiment: as §1, with “ART-resistant” for “wild-type”, “6320 harbouring C580Y mutant” for “3D7”; assay type: functional; conditions: dose nM <=700
[13] = Metabolic stability in mouse liver microsomes assessed as half life at […] incubated for 45 mins in presence of NADPH by LC/MS analysis; assay type: ADME, Microsome; conditions: liver microsomes
[14] = Metabolic stability in mouse liver microsomes assessed as intrinsic clearance at […] incubated for 45 mins in presence of NADPH by LC/MS analysis; assay type: ADME, Microsome; conditions: read-out: CLH

| Structure (SMILES) | IC50 (Plasmodium falciparum [1]) [µM] | IC50 (Plasmodium falciparum [2]) [µM] | IC50 (Plasmodium falciparum [3]) [µM] | IC50 (Plasmodium falciparum [4]) [µM] | IC50 (Plasmodium falciparum [5]) [µM] | IC50 at 72 h [6] [µM] | IC50 at 72 h [7] [µM] | selectivity ratio [8] | selectivity ratio [9] | Activity (Plasmodium falciparum [10]) [%] | Activity (Plasmodium falciparum [11]) [%] | Activity (Plasmodium falciparum [12]) [%] | half-life [13] [h] | CLint scaled [14] [mL/min/kg] |
| --- | --- | --- | --- | --- | --- | --- | --- | --- | --- | --- | --- | --- | --- | --- |
| C[C@H]1[C@@H](O)O[C@@H]2O[C@@]3(C)CC[C@H]4[C@H](C)CC[C@@H]1[C@@]24OO3 [ARTENIMOL] | 0.00208 | 0.00285 | 0.00278 | 0.00234 | 0.0081 |  |  |  |  |  |  |  |  |  |
| O=C(NO)c1cnc(N2CCC3(CN(Cc4ccc5ccccc5c4)C3)C2)nc1 |  | 0.00989 | 0.0132 |  |  | 2.13 | 4.37 | 215 | 442 |  |  |  |  |  |
| C[C@@H]1CC[C@H]2[C@@H](C)C(=O)O[C@@H]3O[C@@]4(C)CC[C@@H]1[C@]32OO4 [ARTEMISININ] |  |  |  |  |  |  |  |  |  | 0.1 | 8 | 8 |  |  |
| O=C(NO)c1cnc(N2CCC3(CN(Cc4ccc5ncccc5c4)C3)C2)nc1 |  | 0.0171 | 0.0119 |  |  | 1.54 | 1.74 | 90 | 102 |  |  |  |  |  |
| O=C(NO)c1cnc(N2CCC3(CN(Cc4cnc5ccccn45)C3)C2)nc1 |  | 0.0122 | 0.0085 |  |  | 20 | 2.37 | > 1640 | 195 |  |  |  |  |  |
| O=C(NO)c1cnc(N2CCC3(CN(Cc4cccc5cccnc45)C3)C2)nc1 |  | 0.0132 | 0.0162 |  |  | 2.66 | 5.58 | 202 | 423 |  |  |  |  |  |
| O=C(NO)c1cnc(N2CCC3(CN(Cc4cncc5ccccc45)C3)C2)nc1 |  | 0.00863 | 0.0124 |  |  | 2.23 | 8.06 | 258 | 934 |  |  |  |  |  |
| O=C(NO)c1cnc(N2CCC3(CN(Cc4cc5ccccc5o4)C3)C2)nc1 |  | 0.00716 | 0.00516 |  |  | 3.89 | 5.62 | 543 | 785 |  |  |  |  |  |
| Cn1cc(CN2CC3(CCN(c4ncc(C(=O)NO)cn4)C3)C2)c2ccncc21 |  | 0.00457 | 0.00959 |  |  | > 20 | > 20 | > 1370 | > 1370 |  |  |  |  |  |
| Cn1nc(CN2CC3(CCN(c4ncc(C(=O)NO)cn4)C3)C2)c2ccccc21 |  | 0.00979 | 0.0127 |  |  | 2.13 | 7.31 | 218 | 767 |  |  |  |  |  |
| O=C(NO)c1cnc(N2CCC3(CN(Cc4csc5ccccc45)C3)C2)nc1 |  | 0.01 | 0.00788 |  |  | 0.49 | 2.58 | 49 | 257 |  |  |  |  |  |
| Cn1cc(CN2CC3(CCN(c4ncc(C(=O)NO)cn4)C3)C2)c2cccnc21 |  | 0.0104 | 0.00783 |  |  | > 12.2 | 6.17 | > 1170 | 594 |  |  |  |  |  |
| O=C(NO)c1cnc(N2CCC3(CN(Cc4ccc(-c5ccccc5)cc4)C3)C2)nc1 |  | 0.0229 | 0.0434 |  |  | 3.14 | 3.99 | 137 | 174 |  |  |  |  |  |
| O=C(NO)c1cnc(N2CCC3(CN(Cc4ccccn4)C3)C2)nc1 |  | 0.0446 | 0.0308 |  |  | 8.37 | > 20 | 188 | > 449 |  |  |  |  |  |
| O=C(NO)c1cnc(N2CCC3(CN(Cc4cccc5ccncc45)C3)C2)nc1 |  | 0.00613 | 0.00584 |  |  | 1.84 | 0.93 | 300 | 152 |  |  |  |  |  |
| O=C(NO)c1cnc(N2CCC3(CN(Cc4ccncc4)C3)C2)nc1 |  | 0.137 | 8.42 |  |  | 20 | > 20 | > 146 | > 146 |  |  |  |  |  |
| Cn1cc(CN2CC3(CCN(c4ncc(C(=O)NO)cn4)C3)C2)c2ccccc21 |  | 0.00459 | 0.00454 |  |  | 0.72 | 1.52 | 157 | 331 |  |  |  |  |  |

| Structure (SMILES) | IC50 (Plasmodium falciparum [1]) [µM] | IC50 (Plasmodium falciparum [2]) [µM] | IC50 (Plasmodium falciparum [3]) [µM] | IC50 (Plasmodium falciparum [4]) [µM] | IC50 (Plasmodium falciparum [5]) [µM] | IC50 at 72 h [6] [µM] | IC50 at 72 h [7] [µM] | selectivity ratio [8] | selectivity ratio [9] | Activity (Plasmodium falciparum [10]) [%] | Activity (Plasmodium falciparum [11]) [%] | Activity (Plasmodium falciparum [12]) [%] | half-life [13] [h] | CLint scaled [14] [mL/min/kg] |
| --- | --- | --- | --- | --- | --- | --- | --- | --- | --- | --- | --- | --- | --- | --- |
| Cl.O=C(NO)c1cnc(N2CCC3(CN(Cc4cnc5ccccc5c4)C3)C2)nc1 |  | 0.0038 | 0.00258 |  |  | 2.04 | 3.62 | 537 | 953 |  |  |  | 0.222 | 410 |
| O=C(NO)c1cnc(N2CCC3(CN(Cc4ccccc4)C3)C2)nc1 |  | 0.0255 | 0.0669 |  |  | 0.42 | 1.98 | 16 | 78 |  |  |  |  |  |
| COc1ccc2c(CN3CC4(CCN(c5ncc(C(=O)NO)cn5)C4)C3)cn(C)c2c1 |  | 0.00597 | 0.0051 |  |  | 0.63 | 0.7 | 106 | 117 |  |  |  |  |  |
| O=C(NO)c1cnc(N2CCC3(CN(Cc4ccsc4)C3)C2)nc1 |  | 0.00625 | 0.00386 |  |  | 2.46 | 4.62 | 394 | 739 |  |  |  |  |  |
| O=C(NO)c1cnc(N2CCC3(CN(Cc4cc5ccccc5s4)C3)C2)nc1 |  | 0.00578 | 0.00857 |  |  | 3.61 | 4.59 | 625 | 794 |  |  |  |  |  |
| Cn1cc(CN2CC3(CCN(c4ncc(C(=O)NO)cn4)C3)C2)c2cnccc21 |  | 0.022 | 0.0142 |  |  | > 20 | > 20 | > 908 | > 908 |  |  |  |  |  |
| O=C(NO)c1cnc(N2CCC3(CN(Cc4c5ccccc5cc5ccccc45)C3)C2)nc1 |  | 0.00931 | 0.00556 |  |  | 31 | 0.46 |  | 49 |  |  |  |  |  |
| Cc1ccc2c(CN3CC4(CCN(c5ncc(C(=O)NO)cn5)C4)C3)cn(C)c2c1 |  | 0.00445 | 0.00325 |  |  | 0.5 | 1.1 | 112 | 247 |  |  |  |  |  |
| O=C(NO)c1cnc(N2CCC3(CN(Cc4ccoc4)C3)C2)nc1 |  | 0.0376 | 0.0401 |  |  | 6.03 | 16.2 | 160 | 431 |  |  |  |  |  |
| O=C(NO)c1cnc(N2CCC3(CN(Cc4cccc5ccccc45)C3)C2)nc1 |  | 0.00446 | 0.00438 |  |  | > 0.77 | 2.7 | > 173 | 605 |  |  |  |  |  |
| O=C(NO)c1cnc(N2CCC3(CN(Cc4cccs4)C3)C2)nc1 |  | 0.0152 | 0.0591 |  |  | 2.51 | > 4.93 | 165 | > 324 |  |  |  |  |  |
| O=C(NO)c1cnc(N2CCC3(CN(Cc4cccc5cnccc45)C3)C2)nc1 |  | 0.0166 | 0.0121 |  |  | 2.21 | 1.61 | 133 | 97 |  |  |  |  |  |
| O=C(NO)c1cnc(N2CCC3(CN(CC4CCCCC4)C3)C2)nc1 |  | 0.0222 | 0.019 |  |  | 1.03 | 3.56 | 46 | 160 |  |  |  |  |  |
| O=C(NO)c1cnc(N2CCC3(CN(CC4CCCC4)C3)C2)nc1 |  |  | 0.0189 |  |  | 1.06 |  | 64 |  |  |  |  |  |  |
| Cl.Cn1cc(CN2CC3(CCN(c4ncc(C(=O)NO)cn4)C3)C2)c2ccc(Br)cc21 |  | 0.00197 | 0.00239 |  |  | 0.75 | 0.72 | 381 | 365 |  |  |  | 6.64 | 13.7 |
| O=C(NO)c1cnc(N2CCC3(CN(Cc4cccnc4)C3)C2)nc1 |  | 0.047 | 2.23 |  |  | 11.4 | > 20 | 243 | > 426 |  |  |  |  |  |
| O=C(NO)c1cnc(N2CCC3(CN(Cc4ccco4)C3)C2)nc1 |  | 0.0762 | 0.117 |  |  | 10.9 | 20 | 144 | > 263 |  |  |  |  |  |
